Assay results as given in article PMC5355322, “Enhancement of the bioavailability of a novel anticancer compound (acetyltanshinone IIA) by encapsulation within mPEG-PLGA nanoparticles: a study of formulation optimization, toxicity, and pharmacokinetics” (Oncotarget, 2017).
Read-outs that look alike come from different tables or passages of the source.

Assays:
[1] = parameters: method as in our previous study in rats; conditions: rats; ref our previous study in rats; cited from earlier work
ER [2] = conditions: ref [23]; cited from earlier work
[3] = Pharmacokinetics in rats after single intravenous administration (RP-HPLC); assay type: in vivo, rat; conditions: for half-life: rat, whole blood, 8 mg/kg
Procedure: The pharmacokinetic parameters of ATA were determined using two-chamber model and calculated using Excel PKsolver. According to the requirements for the selection of pharmacokinetic calculation model, the values of Akaike's information criterion and residual sum of squares (Re) were minimized, while the value of the determinate coefficient (r) was maximized. The mean retention time was calculated by statistical moment analysis.
Free ATA was suspended in a solution of PEG300: Ethanol: Tween 80 (60:25:15, v:v:v). […] At different time points (15 min, 30 min, 1, 2, 3, 4, 5, 6, 8, and 24 h), blood samples (0.3 mL) were collected from the suborbital vein and put into heparinized tubes. The blood samples were centrifuged at 3,000 rpm at 4°C for 10 min to obtain plasma. Then, the samples were pretreated and injected into RP-HPLC for detection. Microsoft Excel PKSolver was used to analyze the pharmacokinetic data. All animal studies were done in accordance with the protocol of ARF SBS NIE A-0146 AZ approved by the Institutional Animal Care and Use Committee, Nanyang Technological University, Singapore.
Before the samples were injected into the chromatograph, they were subjected to protein denaturation and precipitation. Briefly, acetonitrile (700 μL) was added to each 300 μL sample to precipitate the proteins and extract ATA. Samples were vortex mixed for 15 min and then centrifuged for 10 min at 14,000 rpm at 4°C. The deproteinized supernatant was recovered and analyzed immediately by RP-HPLC.
The concentration of ATA in plasma or whole blood was measured by RP-HPLC analysis as described above. The standard stock solution of ATA was added into the plasma or blood at different concentrations and subjected to sample pretreatment. The calibration graphs were based on linear regression analysis of the peak-area of ATA versus the concentration of ATA [32–36]. The extraction recoveries of ATA from rat plasma were determined at the concentrations of 0.0005, 0.01, and 50 μg/mL and from rat blood at the concentrations of 0.1, 5, and 100 μg/mL, using five replicates. The precision and accuracy of the method were examined at three concentrations of samples. The intra-day precisions were evaluated by analyzing five replicate samples in one day. The analysis was performed on five consecutive days for the inter-day precision.

zebrafish larvae = experiment: Heart rate of zebrafish larvae; assay type: in vivo; conditions: 5 μM, 96 hpf; normal fish larvae 160 bpm
Procedure: (§3) Various concentrations of the free and nanoparticle forms of ATA were added to zebrafish embryos at four hours post fertilization (hpf).
The temperature of incubator was maintained at 28.5°C to ensure the optimal development of the embryos. Throughout the experiment, incubation solutions with freshly added ATA were replaced daily. Images of the zebrafish were captured in order to document any morphological changes. The heart rate was also recorded as described previously [44–47]. Twenty zebrafish were used in each experimental group and the zebrafish experiments were conducted at least four times.

[4] = system: MCF-7 breast cancer cells; experiment: MTT cell viability assay, MCF-7; assay type: cell-based; conditions: for reduction of viability of MCF-7 cells: 10 μM and 20 μM; for IC50: Homo sapiens, MCF7
Procedure: (§1) Meanwhile, human umbilical vein endothelial cells (HUVEC) were used to determine the general toxicity of ATA NPs on non-cancerous cells. Cells were treated with free ATA or ATA NPs at six concentrations: 0.625, 1.25, 2.5, 5, 10, and 20 μM for 24, 48, and 72 h. Cell viability was determined by the MTT assay and the experiment was conducted in triplicate.
(§2) The MTT reduction ability was determined as an index of the metabolic viability, in particular mitochondrial function, of the cells. Briefly, MCF-7 cells or HUVEC were seeded in 96-well plates and allowed to grow overnight. Free ATA (dissolved in DMSO, diluted with DMEM), ATA NPs, or blank NPs were added at different concentrations and the cells were incubated for 24, 48, and 72 h. MTT solution (10 μL; 5 mg/mL) was added into each well for 4 h. One hundred microliters of 1% SDS (containing 0.1% concentrated hydrochloric acid) was then added in each well to dissolve the formazan crystals. After 8 h, the absorbance of solubilized MTT formazan products were measured at 595 nm, and the cell viability was calculated from the OD value of the test sample and the vehicle control (untreated cells) using the following equation: cell viability (%) = ODtest sample /ODvehicle control × 100. The data obtained in triplicate from three independent experiments were presented as the mean ± SD.

[5] = system: human umbilical vein endothelial cells (HUVEC); experiment: MTT cell viability assay, HUVEC; assay type: cell-based; conditions: for IC50: Homo sapiens, HUVEC
Procedure: as §1, §2

ER+ breast cancer cells = conditions: compared with tamoxifen; ref [23]; cited from earlier work
ER [6] = conditions: ref [23]; cited from earlier work; remark: listed apart in the source
Drug release by dialysis = assay type: physicochemical; conditions: after 22 h, water with 1% SDS, 37°C
Procedure: The release of ATA from ATA NPs was investigated using dialysis and compared with the release of free ATA in solution [38–41]. Free ATA, or ATA NPs containing an equal amount of ATA, was mixed with release medium (6 mL ultra-pure water with 1% SDS) and placed in a dialysis sack (MWCO 12,000, Sigma). The pocket was then immersed in release medium (50 mL) with gentle stirring at 37°C. Samples of medium from outside of the pocket (2 mL) were taken at the designated time intervals for analysis, and an equal volume of fresh release medium was replenished. The amount of released drug was determined by the RP-HPLC method described in the section “Pharmacokinetics of ATA NPs in rats” below. The similarity of release profiles between the free ATA and ATA NPs were evaluated by the similarity factor (f2) shown below: f2=50log {[1+1/n∑t=1n(Rt−Tt)^2]^−0.5×100}
where n is the number of the time points, Rt is the release value of ATA NPs at time t, and Tt is the release value of free ATA.

GREB1 = conditions: ref [23]; cited from earlier work
[7] = rat whole blood, single i.v. 8 mg/kg
[8] = rat whole blood, single i.v. 8 mg/kg, two-chamber model

Procedure for zebrafish embryos: as §3
Male and female zebrafish were bred in separate tanks. […] After mating, the selected embryos were collected at 4 hpf and placed in 96-well plates. […] In brief, these embryos were placed in glass petri dishes containing of fresh water (25 mL) with pronase (50 μL; 50 mg/mL) for 4-5 min.
Throughout the experiment, incubation solutions with freshly added ATA were replaced daily. Images of the zebrafish were captured in order to document any morphological changes. […] Twenty zebrafish were used in each experimental group and the zebrafish experiments were conducted at least four times.

CC(=O)Oc1c(OC(C)=O)c2c(C)coc2c2ccc3c(c12)CCCC3(C)C [Free ATA, acetyltanshinone IIA]
bioavailability [1]: low bioavailability | expression of ER at the mRNA level (ER [2]): reduced the expression of ER at the mRNA level | MRT ([3]; female, SD, iv, rat whole blood, single i.v. 8 mg/kg, statistical moment analysis, read-out: MRT (mean retention time) (converted)): 15.9 min | AUC(0-inf) ([3]; female, SD, iv, rat whole blood, single i.v. 8 mg/kg, two-chamber model): 0.514 µM·h | AUC(0-t) ([3]; female, SD, iv, rat whole blood, single i.v. 8 mg/kg, two-chamber model, read-out: AUC0-24h (converted)): 0.509 µM·h | C0 ([3]; female, SD, iv, rat whole blood, single i.v. 8 mg/kg, two-chamber model, read-out: C0 (initial concentration)): 4.06 µM | half-life ([3]; female, SD, iv, rat whole blood, single i.v. 8 mg/kg, two-chamber model, read-out: t1/2 alpha (distribution half-life)): 3.55 min | half-life ([3]; female, SD, iv, rat whole blood, single i.v. 8 mg/kg, two-chamber model, read-out: t1/2 beta (elimination half-life)): 22.8 min | ATA concentration in plasma ([3]; rat plasma, i.v. 8 mg/kg, both forms): too low to be detected after 15 min | time until the blood concentration of ATA was reduced to 0.5 μM ([3]; rat whole blood, i.v. 8 mg/kg): 12 min | decline of blood ATA concentration ([3]; rat whole blood, i.v. 8 mg/kg, 240-min test): declined rapidly, and reached a very low level after 30 min | AUMC (area under the first moment curve) [3, 7]: 490.97 μM·min^2 | Vss (steady state volume of distribution) [3, 7]: 4.12 mg/kg/µM | CL2 (clearance between central and peripheral compartment) [3, 8]: 0.10 (mg/kg)/μM/min | CL (clearance) [3, 8]: 0.26 (mg/kg)/μM/min | V2 (compartment volume of distribution) [3, 8]: 2.15 (mg/kg)/μM | V (apparent volume of distribution) [3, 8]: 1.97 (mg/kg)/μM | k10 (elimination rate) [3, 8]: 0.13 min⁻¹ | k12 (inter-compartment rate) [3, 8]: 0.05 min⁻¹ | k21 (intra-compartment rate) [3, 8]: 0.05 min⁻¹ | heartbeats (zebrafish larvae): 120 bpm | reduction of viability of MCF-7 cells ([4]; 48 and 72 h): ~100% | reduction of viability of MCF-7 cells ([4]; 24 h): approximately 90% | IC50 ([4]; MCF-7, 24 h): 2620 nM | IC50 ([4]; MCF-7, 48 h): 1720 nM | IC50 ([4]; MCF-7, 72 h): 1060 nM | 24 h-IC50 in HUVEC cells relative to MCF-7 cells ([5]; 24 h, HUVEC vs MCF-7): 7.4 fold | IC50 ([5]; 24 h): 19.3 µM | IC50 ([5]; 48 h): 6.67 µM | IC50 ([5]; 72 h): 2.05 µM | growth inhibition of ER+ breast cancer cells (ER+ breast cancer cells): stronger growth inhibition of ER+ breast cancer cells than tamoxifen | effect on ER protein (ER [6]): completely abolished the presence of ER | Deformity and mortality rate (%) (total) (zebrafish embryos; 2.5 μM, 96 hpf): 40% | Mortality rate (%) (zebrafish embryos; 5 μM, 96 hpf): 70% | Mortality rate (%) (zebrafish embryos; 10 μM, 96 hpf): 100% | Mortality rate (%) (zebrafish embryos; 20 μM, 96 hpf): 100% | dosages that caused deformity or mortality in zebrafish larvae (zebrafish embryos; 96 hpf): higher than 1 μM | Deformity rate (%) (zebrafish embryos; zebrafish, in vivo): 20% | ATA released (Drug release by dialysis): 50% | transcription of ER-responsive gene GREB1 (GREB1): reduced the transcription

C[C@]12CC[C@@H]3c4ccc(O)cc4C[C@@H](CCCCCCCCC[S+]([O-])CCCC(F)(F)C(F)(F)F)[C@H]3[C@@H]1CC[C@@H]2O (some centres unmarked) [fulvestrant, reference compound]
effect on ER protein (ER [6]): only reduced the protein level
